The values below come from ChEMBL document CHEMBL3526006, “Metabolite profiling of bendamustine in urine of cancer patients after administration of [14C]bendamustine” (Drug Metab Dispos, 2012).

Type in all cases: ADME, organism-based
Data set [1] in a line: Drug excretion in human urine assessed as retention time treated with [14C]bendamustine at 120 mg/m'2, iv after 2 hrs by 180 mins LC-LSC-MSn method.
The nature of data set [2]: Drug excretion in human urine treated with [14C]bendamustine at 120 mg/m'2, iv after 2 hrs by 60-min LC-LSC-MSn method. The following applies: in vivo.
Data set [3] can be described thus: Drug excretion in human urine assessed as retention time treated with [14C]bendamustine at 120 mg/m'2, iv after 2 hrs by 60 mins LC-LSC-MSn method.
Data set [4] in a line: Drug level in human urine treated with [14C]bendamustine at 120 mg/m'2, iv up to 168 hrs by 60-min LC-LSC-MSn method. The following applies: in vivo.
The nature of data set [5]: Drug excretion in human urine assessed as 4-(6-((2-(2-amino-2-carboxyethylthio)ethyl)(2-hydroxyethyl)amino)-1-methyl-1H-benzo[d]imidazol-2-yl)-4-hydroxybutanoic acid formation at 120 mg/m'2, iv up to 168 hrs by 60-min LC-LSC-MSn method. Conditions: in vivo.
A short description of data set [6]: Drug recovery in human urine at 120 mg/m'2, iv administered as single dose measured up to 3 weeks. The following applies: read-out: Drug recovery.
A short description of data set [7]: Drug excretion in human urine assessed as 4-(6-(bis(2-hydroxyethyl)amino)-1-methyl-1H-benzo[d]imidazol-2-yl)butanoic acid formation at 120 mg/m'2, iv up to 168 hrs by 60-min LC-LSC-MSn method. The following applies: in vivo.
Data set [8] is described as follows: Drug excretion in human urine assessed as 4-(6-((2-(2-amino-2-carboxyethylthio)ethyl)(2-hydroxyethyl)amino)-1-methyl-1H-benzo[d]imidazol-2-yl)butanoic acid formation at 120 mg/m'2, iv up to 168 hrs by 60-min LC-LSC-MSn method. The following applies: in vivo.
Data set [9] in a line: Drug excretion in human urine assessed as retention time at 120 mg/m'2, iv after 2 hrs by 180-min LC-LSC-MSn method.
A short description of data set [10]: Total drug recovery in human at 120 mg/m'2, iv administered as single dose measured up to 3 weeks. The following applies: in vivo, read-out: Drug recovery.
Data set [11] can be described thus: Drug excretion in human urine assessed as 4-(6-(bis(2-hydroxyethyl)amino)-1-methyl-1H-benzo[d]imidazol-2-yl)-4-hydroxybutanoic acid formation at 120 mg/m'2, iv up to 168 hrs by 60-min LC-LSC-MSn method. The following applies: in vivo.

In the case of `Cn1c(C(O)CCC(=O)O)nc2ccc(N(CCCl)CCCl)cc21` (centres undefined), the Retention_time in data set [1] came to 104.5 min; in data set [3], 35.1 min. In addition, the Drug excretion in [2] is given as more than 1%.
As to `Cn1c(C(O)CCC(=O)O)nc2ccc(N(CCO)CCO)cc21` (centres undefined), the Retention_time in [1] was 23.8 min; in [3], 13.3 min. Further, the Drug excretion result in data set [4] is “metabolite_detected”; in data set [2], more than 1%.
For `Cn1c(C(O)CCC(=O)O)nc2ccc(N(CCO)CCSCC(N)C(=O)O)cc21` (centres undefined), in that order: 19.7 min, 11 min, “metabolite_detected” and more than 1%.
Consider `Cn1c(C(O)CCC(=O)O)nc2ccc(NCCCl)cc21` (centres undefined), for which the values for the Retention_time in data set [1] and in [3] were 57.3 min and 25.4 min, respectively. The same molecule returned a Drug excretion in data set [2] of more than 1%.
With `Cl.Cn1c(CCCC(=O)O)nc2ccc(N(CCCl)CCCl)cc21`, the Drug excretion entry in data set [5], in [7], in data set [8] and in data set [11] was “metabolite_detected” in each case. Besides, the dose excreted at 504 h in data set [6] was found to be 3%; in data set [10] it was 76%. Further, the Retention_time in [9] amounted to 36.3 min.
In the case of `Cn1c(CCCC(=O)O)nc2ccc(NCCCl)cc21`, the Retention_time in data set [1] was 72.5 min; in [3], 28.6 min. The same molecule yielded a Drug excretion in [2] of more than 1%.
On to `Cn1c(CCCC(=O)O)nc2ccc(N(CCO)CCSCC(N)C(=O)O)cc21` (centres undefined), for which the Retention_time was found to be 29 min in data set [1] and 15.8 min in data set [3]. The Drug excretion result in data set [4] is “metabolite_detected”; in data set [2], more than 1%.
With `Cn1c(CCCC(=O)O)nc2ccc(N(CCO)CCCl)cc21`, the Retention_time in data set [1] is on record as 82.7 min; in data set [3], 29.2 min. In [2], this molecule came in with a Drug excretion of more than 1%.
For `Cn1c(CCCC(=O)O)nc2ccc(N(CCCl)CCOP(=O)(O)O)cc21`, in that order: 70.7 min, 26.1 min and more than 1%.
The corresponding values for `Cn1c(CCCC(=O)O)nc2ccc(N(CCO)CCS)cc21` are 64.4 min, 24.2 min and more than 1%.
In the case of `Cn1c(CCCC(=O)O)nc2ccc(N(CCCl)CCSCC(N)C(=O)O)cc21` (centres undefined), the Retention_time stood at 73.7 min in data set [1] and 26.5 min in data set [3]. The molecule further displayed a Drug excretion in data set [2] of more than 1%.
Regarding `Cn1c(CCCC(=O)O)nc2ccc(N(CCO)CCO)cc21`, the Retention_time in [1] is 33.7 min; in data set [3] it was 17.6 min. Besides, the Drug excretion result is reported as “metabolite_detected” in [4] and more than 1% in data set [2].
With `Cn1c(C(O)CCC(=O)O)nc2ccc(N(CCO)CCCl)cc21` (centres undefined), the Retention_time in data set [1] was 71.3 min; in data set [3], 27.1 min. This molecule yielded a Drug excretion in data set [2] of more than 1%.
The corresponding values for `CN1CC(=O)N=C1NCCN(CCCl)c1ccc2nc(CCCC(=O)O)n(C)c2c1` are 54.6 min, 23.1 min and more than 1%.
The corresponding values for `CC(=O)NC(CSCCN(CCCl)c1ccc2nc(CCCC(=O)O)n(C)c2c1)C(=O)O` (centres undefined) are 97.6 min, 32.2 min and more than 1%.
The corresponding values for `O=C(O)CCCc1nc2ccc(N(CCO)CCO)cc2[nH]1` are 18.7 min, 10.9 min and more than 1%.
In the case of `Cn1c(CCCC(=O)O)nc2ccc(N(CCS)CCCl)cc21`, the Retention_time is on record as 99.4 min in data set [1] and 35.1 min in data set [3]. For the same molecule, the Drug excretion in data set [2] is more than 1%.
The corresponding values for `CN1CC(=O)N=C1NCCN(CCO)c1ccc2nc(CCCC(=O)O)n(C)c2c1` are 24.2 min, 13.9 min and more than 1%.
The corresponding values for `Cn1c(C(O)CCC(=O)O)nc2ccc(N(CCO)CCOP(=O)(O)O)cc21` (centres undefined) are 14.7 min, 7.9 min and more than 1%.
For the molecule `Cn1c(CCCC(=O)O)nc2ccc(NCC=O)cc21`, the values for the Retention_time in data set [1] and in [3] were 29.4 min and 16.9 min, respectively. Besides, the Drug excretion in data set [2] was more than 1%.
`O=C(O)CCC(O)c1nc2ccc(N(CCCl)CCCl)cc2[nH]1` (centres undefined): the values for the Retention_time in [1] and in data set [3] were 105.1 min and 35.3 min, respectively. The molecule also registered a Drug excretion in data set [2] of more than 1%.
For `Cn1c(CCCC(=O)O)nc2ccc(N(CCO)CCOP(=O)(O)O)cc21`, in that order: 22 min, 12.1 min and more than 1%.
